The species entered for one assay is Homo sapiens. The experiment in a line: In vitro inhibition of ADP-induced platelet aggregation in human platelet rich plasma. Type of assay: functional.
Assay [1] can be described thus: Relative potency with respect to PGF2-alpha = 100 in rat blood pressure assay.
Assay [2] is described as follows: Potency in gerbil colon stimulation assay compared to PGE1. Format: functional.
The nature of assay [3]: Relative potency with respect to PGE1 = 100 in rat blood pressure assay. Format: functional.

Structures are written as SMILES. Converted amounts (≈) assume the structure as drawn.

In the case of `CCCCC[C@H](O)CCC1C(=O)C[C@H](O)[C@@H]1CCCCCCC(=O)O` (stereo partly drawn), the IC50 (as a rule, the midpoint of a concentration-inhibition curve) in the assay listed under Homo sapiens worked out at 3.2 µg/mL (≈ 8.98 µM). Also, the Relative potency worked out at 0.3 in assay [1] and 0.1 in assay [2].

With `CCCCC[C@H](O)/C=C/C1C(=O)C[C@H](O)[C@@H]1CCCCCCC(=O)O` (stereo partly drawn), inhibition in the assay filed under Homo sapiens was half-maximal at 0.32 µg/mL (≈ 0.903 µM) (IC50). The Relative potency was determined as 0.1 in assay [3] and 3 in assay [2].

Consider `CCCCC[C@H](O)/C=C/C1C(=O)CC2OC(=O)CCC/C=C\C[C@@H]21` (stereo partly drawn), for which the IC50 in the assay listed under Homo sapiens worked out at 0.032 µg/mL (≈ 0.0957 µM). For the same compound, the Relative potency was found to be 1 in assay [3] and 0.3 in assay [2].

As for `CCCCC[C@H](O)/C=C/C1C(=O)CC[C@@H]1C/C=C\CCCC(=O)O` (stereo partly drawn), the IC50 in the assay filed under Homo sapiens came to 0.001 µg/mL (≈ 0.00297 µM). Further, the Relative potency is recorded as 10 in assay [3] and 1 in assay [2].

In the assay listed under Homo sapiens, `CCCCC[C@H](O)/C=C/C1C(=O)C[C@H](O)[C@@H]1C/C=C\CCCCCC(=O)O` (stereo partly drawn) had an IC50 of 1 µg/mL (≈ 2.63 µM). Besides, the Relative potency in assay [2] is given as <0.1.

In the assay listed under Homo sapiens, `CCCCC[C@](C)(O)/C=C/C1C(=O)C=C[C@@H]1C/C=C\CCCC(=O)O` (stereo partly drawn) showed an IC50 of 1 µg/mL (≈ 2.87 µM). The Relative potency worked out at 0.1 in assay [3] and 0.3 in assay [2].

Consider `CCCCC[C@@H]1/C=C\C2C(=O)CC(O)[C@@H]2C/C=C\CCCC(=O)O1` (stereo partly drawn), for which 1 µg/mL (≈ 2.99 µM) corresponded to half-maximal inhibition in the assay filed under Homo sapiens (IC50). The Relative potency in assay [3] and in assay [2] was 0.1 throughout.

Regarding `CCCCC[C@H](O)/C=C/C1C(=O)CC(O)[C@@H]1C/C=C\CCCC(=O)O` (stereo partly drawn), in the assay filed under Homo sapiens, half-maximal inhibition (IC50) was put at 0.0001 µg/mL (≈ 0.000284 µM). Further, the Relative potency was 10 in assay [3] and 0.3 in assay [2].

On to `CCCCC[C@H](O)/C=C/C1C(=O)C=C[C@@H]1C/C=C\CCCC(=O)O` (stereo partly drawn), for which 0.0032 µg/mL (≈ 0.00957 µM) corresponded to half-maximal inhibition in the assay listed under Homo sapiens (IC50). Also, the Relative potency in assay [3] was determined as 10; in assay [2], 0.1.

In the case of `CC/C=C\C[C@H](O)/C=C/C1C(=O)C[C@H](O)[C@@H]1C/C=C\CCCC(=O)O` (stereo partly drawn), it took 0.0032 µg/mL (≈ 0.00913 µM) to reach half-maximal inhibition in the assay listed under Homo sapiens (IC50). Also, the Relative potency in assay [3] stood at 10; in assay [2], 1.

Regarding `CCCCC(C)(C)[C@H](O)/C=C/C1C(=O)C[C@H](O)[C@@H]1C/C=C\CCCC(=O)O` (stereo partly drawn), the Relative potency in assay [1] turned out to be 32; in assay [2], 3.

Take `CCCCC[C@H](O)/C=C/C1C(=O)C[C@H](O)[C@@H]1CCOCCCC(=O)O` (stereo partly drawn): in the assay filed under Homo sapiens, the IC50 amounted to 0.032 µg/mL (≈ 0.0898 µM). The compound also had a Relative potency in assay [2] of 0.3.

In turn, `O=C(O)CCC/C=C\C[C@@H]1C(/C=C/[C@@H](O)CCc2ccccc2)C(=O)C[C@@H]1O` (stereo partly drawn) had an IC50 in the assay listed under Homo sapiens of 3.2 µg/mL (≈ 8.28 µM). Moreover, the Relative potency worked out at 32 in assay [1] and 10 in assay [2].

With `CCCCC[C@H](O)/C=C/[C@H]1C(=O)C[C@H](O)[C@@H]1C/C=C/CCCC(=O)O` [[3H]PGD2], in the assay listed under Homo sapiens, half-maximal inhibition (IC50) was put at 0.0032 µg/mL (≈ 0.00908 µM). Further, the values for the Relative potency in assay [3] and in assay [2] were 10 and 3, respectively.

In the assay listed under Homo sapiens, `CCCCC[C@H](O)C/C=C1/C(=O)C[C@H](O)[C@@H]1C/C=C\CCCC(=O)O` showed an IC50 of 0.1 µg/mL (≈ 0.284 µM). The Relative potency is listed as 10 in assay [3] and 1 in assay [2].

Consider `CCCCC/C=C/C=C1/C(=O)C[C@H](O)[C@@H]1C/C=C\CCCC(=O)O`, for which, in the assay filed under Homo sapiens, it took 0.32 µg/mL (≈ 0.957 µM) to reach half-maximal inhibition (IC50). The Relative potency in assay [3] was 0.1; in assay [2] it was <0.1.

In the assay filed under Homo sapiens, `CCCCC[C@](C)(O)/C=C/C1C(=O)C[C@H](O)[C@@H]1C/C=C\CCCC(=O)O` (stereo partly drawn) had a half-inhibitory concentration (IC50) of 0.32 µg/mL (≈ 0.873 µM). The Relative potency in assay [1] was 32; in assay [2], 10.
